According to US7456296B2, “Method for preparation of crystalline perindopril erbumine” (Lupin Ltd, priority 2003, dated 2008):

What was measured:
[1] = Compressibility Index (Flowability) by standard methods; format: physicochemical; details: crystalline powder
Procedure: (§1) Compressability Index, or in other words the Flowability of the two materials were determined by standard methods practiced in the art. The Particle Size Distribution was determined using a Mastersizer 2000, Version 2 instrument with cyclohexane as the dispersant.

[2] = Particle Size Distribution, Mastersizer 2000 with cyclohexane as the dispersant; format: physicochemical
Procedure: as §1

[3] = final printed label of ACEON Tablets, cited from earlier work

SMILES: CCC[C@H](N[C@@H](C)C(=O)N1[C@H](C(=O)O)C[C@@H]2CCCC[C@@H]21)C(=O)OCC [Perindopril erbumine crystallized as per the method of the p]
- Compressibility Index [1]: 23.8
- Particle Size Distribution (10%) [2]: 9.06μ (10%);
- Particle Size Distribution (50%) [2]: 36.37μ (50%);
- Particle Size Distribution (90%) [2]: 119.78μ (90%)

SMILES: CCC[C@H](N[C@@H](C)C(=O)N1[C@H](C(=O)O)C[C@@H]2CCCC[C@@H]21)C(=O)OCC [perindopril erbumine]
- solubility in alcohol ([3]; alcohol): freely soluble
- solubility in chloroform ([3]; chloroform): freely soluble
- solubility in water ([3]; water): 60 % w/w

SMILES: CCC[C@H](N[C@@H](C)C(=O)N1[C@H](C(=O)O)C[C@@H]2CCCC[C@@H]21)C(=O)OCC [Perindopril erbumine crystallized as per the method of U.S. ]
- Compressibility Index [1]: 20.00
- Particle Size Distribution (10%) [2]: 16.39μ (10%);
- Particle Size Distribution (50%) [2]: 70.18μ (50%);
- Particle Size Distribution (90%) [2]: 188.11μ (90%)
